Key:
[1] = biological target: Tyrosine-protein kinase Yes (Homo sapiens) (UniProt P07947); conditions: Compound concentration 1000.0 nM
[2] = biological target: Insulin-like growth factor 1 receptor (Homo sapiens) (UniProt P08069); conditions: Compound concentration 1000.0 nM
[3] = biological target: Vascular endothelial growth factor receptor 1 (Homo sapiens) (UniProt P17948); conditions: Compound concentration 1000.0 nM
[4] = biological target: Serine/threonine-protein kinase 38-like (Homo sapiens) (UniProt Q9Y2H1); conditions: Compound concentration 1000.0 nM
[5] = biological target: Serine/threonine-protein kinase PAK 4 (Homo sapiens) (UniProt O96013); conditions: Compound concentration 1000.0 nM
[6] = test system: Tyrosine-protein kinase ABL1 (Homo sapiens), P00519 [F317I]; conditions: Compound concentration 1000.0 nM
[7] = biological target: Melatonin receptor type 1B (Homo sapiens) (UniProt P49286); test: MT2 (ML1B) (h) Eurofins-Cerep binding assay; parameters: ligand concentration 0.05 nM; conditions: filed as agonist, Compound concentration 10.0 uM
[8] = biological target: Activin receptor type-2B (Homo sapiens) (UniProt Q13705); conditions: Compound concentration 1000.0 nM
[9] = biological target: Dual serine/threonine and tyrosine protein kinase (Homo sapiens) (UniProt Q6XUX3); conditions: Compound concentration 1000.0 nM
[10] = biological target: Rho-associated protein kinase 1 (Homo sapiens) (UniProt Q13464); conditions: Compound concentration 1000.0 nM
[11] = biological target: Serine/threonine-protein kinase 16 (Homo sapiens) (UniProt O75716); conditions: Compound concentration 1000.0 nM
[12] = biological target: T1, Endothelin-1 receptor (Homo sapiens, UniProt P25101); test: Eurofins cellular functional assay - Antagonist (EDNRA)
T1 sequence (P25101 whole entry): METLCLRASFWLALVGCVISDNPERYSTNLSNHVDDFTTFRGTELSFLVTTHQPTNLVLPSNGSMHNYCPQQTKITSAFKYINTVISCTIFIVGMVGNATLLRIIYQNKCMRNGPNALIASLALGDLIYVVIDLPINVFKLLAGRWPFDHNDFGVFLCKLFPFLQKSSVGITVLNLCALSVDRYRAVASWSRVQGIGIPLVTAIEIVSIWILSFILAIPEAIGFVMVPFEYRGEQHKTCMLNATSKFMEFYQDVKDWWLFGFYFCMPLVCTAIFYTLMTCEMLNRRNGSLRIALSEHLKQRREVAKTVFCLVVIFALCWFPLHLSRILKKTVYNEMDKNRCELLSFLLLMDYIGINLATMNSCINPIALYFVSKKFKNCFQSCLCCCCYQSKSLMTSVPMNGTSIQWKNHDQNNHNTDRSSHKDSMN

[13] = biological target: Tyrosine-protein kinase Mer (Homo sapiens) (UniProt Q12866); conditions: Compound concentration 1000.0 nM
Chain of Tyrosine-protein kinase Mer (Homo sapiens) (Q12866 whole entry): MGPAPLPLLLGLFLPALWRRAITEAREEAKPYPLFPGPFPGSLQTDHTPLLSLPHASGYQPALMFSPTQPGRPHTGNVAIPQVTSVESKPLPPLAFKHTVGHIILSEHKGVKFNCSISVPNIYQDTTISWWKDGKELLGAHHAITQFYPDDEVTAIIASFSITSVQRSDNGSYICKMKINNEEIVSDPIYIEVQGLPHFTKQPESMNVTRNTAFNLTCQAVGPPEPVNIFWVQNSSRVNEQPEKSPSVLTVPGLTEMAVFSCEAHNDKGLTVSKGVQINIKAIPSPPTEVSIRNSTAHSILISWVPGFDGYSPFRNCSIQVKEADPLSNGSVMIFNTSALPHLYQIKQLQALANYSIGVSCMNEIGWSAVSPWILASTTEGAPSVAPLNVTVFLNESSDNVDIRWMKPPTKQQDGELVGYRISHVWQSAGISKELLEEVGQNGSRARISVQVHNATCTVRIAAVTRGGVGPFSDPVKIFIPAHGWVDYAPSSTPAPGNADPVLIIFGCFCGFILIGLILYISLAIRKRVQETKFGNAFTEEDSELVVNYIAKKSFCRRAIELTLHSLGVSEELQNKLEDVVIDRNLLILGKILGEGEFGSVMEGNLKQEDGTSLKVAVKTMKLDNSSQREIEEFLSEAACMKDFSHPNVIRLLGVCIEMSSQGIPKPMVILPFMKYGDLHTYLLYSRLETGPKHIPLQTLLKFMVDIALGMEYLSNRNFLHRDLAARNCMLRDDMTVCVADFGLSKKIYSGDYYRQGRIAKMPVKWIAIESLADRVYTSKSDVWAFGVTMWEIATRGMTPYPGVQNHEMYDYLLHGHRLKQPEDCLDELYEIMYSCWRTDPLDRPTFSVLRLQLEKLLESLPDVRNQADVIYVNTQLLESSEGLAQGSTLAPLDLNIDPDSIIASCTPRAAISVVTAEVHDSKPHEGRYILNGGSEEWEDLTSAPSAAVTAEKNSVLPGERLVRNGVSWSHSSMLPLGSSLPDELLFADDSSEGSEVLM

[14] = biological target: Hepatocyte growth factor receptor (Homo sapiens) (UniProt P08581); conditions: Compound concentration 1000.0 nM
[15] = biological target: Tyrosine-protein kinase Fyn (Homo sapiens) (UniProt P06241); conditions: Compound concentration 1000.0 nM
[16] = biological target: Fibroblast growth factor receptor 4 (Homo sapiens) (UniProt P22455); conditions: Compound concentration 1000.0 nM
[17] = biological target: Serine/threonine-protein kinase RIO3 (Homo sapiens) (UniProt O14730); conditions: Compound concentration 1000.0 nM
Chain of Serine/threonine-protein kinase RIO3 (Homo sapiens) (O14730 whole entry): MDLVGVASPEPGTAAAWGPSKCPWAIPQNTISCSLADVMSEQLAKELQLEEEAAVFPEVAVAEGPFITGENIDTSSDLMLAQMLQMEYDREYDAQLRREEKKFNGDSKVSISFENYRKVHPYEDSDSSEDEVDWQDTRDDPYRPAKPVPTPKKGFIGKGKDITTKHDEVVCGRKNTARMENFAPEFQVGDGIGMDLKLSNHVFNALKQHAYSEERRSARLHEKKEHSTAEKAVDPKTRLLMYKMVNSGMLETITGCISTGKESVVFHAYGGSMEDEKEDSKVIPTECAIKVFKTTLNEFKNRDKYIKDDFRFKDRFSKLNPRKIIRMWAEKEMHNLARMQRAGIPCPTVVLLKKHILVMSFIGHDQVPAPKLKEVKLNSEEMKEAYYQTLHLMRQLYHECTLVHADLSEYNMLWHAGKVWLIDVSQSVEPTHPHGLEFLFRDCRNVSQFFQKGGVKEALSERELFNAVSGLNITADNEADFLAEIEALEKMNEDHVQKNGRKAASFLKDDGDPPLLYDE

[18] = test system: Tyrosine-protein kinase ABL1 (Homo sapiens), P00519 [Q252H]; conditions: Compound concentration 1000.0 nM
[19] = biological target: Mitotic checkpoint serine/threonine-protein kinase BUB1 (Homo sapiens) (UniProt O43683); conditions: Compound concentration 1000.0 nM
[20] = test system: Receptor-type tyrosine-protein kinase FLT3 (Homo sapiens), P36888 [D835Y]; conditions: Compound concentration 1000.0 nM
[21] = biological target: Vasopressin V1a receptor (Homo sapiens) (UniProt P37288); test: V1 a (h) Eurofins-Cerep binding assay; parameters: ligand concentration 0.3 nM; conditions: filed as agonist, Compound concentration 10.0 uM
Chain of Vasopressin V1a receptor (Homo sapiens) (P37288 whole entry, looked up): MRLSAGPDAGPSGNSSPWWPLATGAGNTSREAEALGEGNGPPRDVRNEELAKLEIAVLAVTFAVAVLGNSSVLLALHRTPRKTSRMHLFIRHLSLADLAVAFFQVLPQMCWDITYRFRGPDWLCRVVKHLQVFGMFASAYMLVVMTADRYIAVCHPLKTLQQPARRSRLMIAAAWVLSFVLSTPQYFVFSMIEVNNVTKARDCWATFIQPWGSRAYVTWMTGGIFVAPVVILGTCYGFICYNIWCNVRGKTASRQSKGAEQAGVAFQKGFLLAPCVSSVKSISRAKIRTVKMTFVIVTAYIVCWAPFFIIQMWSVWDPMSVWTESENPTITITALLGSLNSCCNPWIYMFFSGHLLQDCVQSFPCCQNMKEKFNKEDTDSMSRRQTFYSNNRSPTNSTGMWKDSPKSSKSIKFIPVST

[22] = biological target: D(2) dopamine receptor (Homo sapiens) (UniProt P14416); test: D2S (h) Eurofins-Cerep binding assay; parameters: ligand concentration 0.3 nM; conditions: filed as antagonist, Compound concentration 10.0 uM
[23] = biological target: Serine/threonine-protein kinase MAK (Homo sapiens) (UniProt P20794); conditions: Compound concentration 1000.0 nM
[24] = biological target: Myosin light chain kinase (Homo sapiens) (UniProt Q32MK0); conditions: Compound concentration 1000.0 nM
Chain of Myosin light chain kinase (Homo sapiens) (Q32MK0 whole entry): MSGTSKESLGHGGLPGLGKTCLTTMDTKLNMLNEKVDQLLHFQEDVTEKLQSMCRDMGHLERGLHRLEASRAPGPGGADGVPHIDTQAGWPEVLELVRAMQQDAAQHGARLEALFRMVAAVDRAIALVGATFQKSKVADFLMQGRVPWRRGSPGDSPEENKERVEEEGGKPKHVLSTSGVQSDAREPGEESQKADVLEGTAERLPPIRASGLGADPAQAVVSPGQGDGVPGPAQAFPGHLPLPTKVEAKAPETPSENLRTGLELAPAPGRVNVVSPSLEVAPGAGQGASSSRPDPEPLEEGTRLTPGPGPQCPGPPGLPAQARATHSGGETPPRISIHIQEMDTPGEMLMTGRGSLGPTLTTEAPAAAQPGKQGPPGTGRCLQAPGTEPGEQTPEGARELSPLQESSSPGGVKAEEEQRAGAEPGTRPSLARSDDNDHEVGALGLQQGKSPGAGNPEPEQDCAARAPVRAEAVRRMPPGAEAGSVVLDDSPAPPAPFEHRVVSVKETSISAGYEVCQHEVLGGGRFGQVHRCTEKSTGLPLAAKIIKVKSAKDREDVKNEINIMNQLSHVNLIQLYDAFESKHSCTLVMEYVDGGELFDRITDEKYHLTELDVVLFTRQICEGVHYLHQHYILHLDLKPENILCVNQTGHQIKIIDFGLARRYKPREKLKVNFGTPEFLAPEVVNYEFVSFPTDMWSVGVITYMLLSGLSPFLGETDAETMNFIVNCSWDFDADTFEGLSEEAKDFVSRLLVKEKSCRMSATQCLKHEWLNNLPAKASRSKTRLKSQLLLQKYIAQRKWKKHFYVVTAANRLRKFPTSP

[25] = biological target: Serine/threonine-protein kinase Nek4 (Homo sapiens) (UniProt P51957); conditions: Compound concentration 1000.0 nM
[26] = biological target: T2, Alpha-1A adrenergic receptor (Homo sapiens) (UniProt P35348); test: Alpha1A (h) Eurofins-Cerep binding assay; parameters: ligand concentration 0.1 nM; conditions: filed as antagonist, Compound concentration 10.0 uM
T2 sequence (whole entry): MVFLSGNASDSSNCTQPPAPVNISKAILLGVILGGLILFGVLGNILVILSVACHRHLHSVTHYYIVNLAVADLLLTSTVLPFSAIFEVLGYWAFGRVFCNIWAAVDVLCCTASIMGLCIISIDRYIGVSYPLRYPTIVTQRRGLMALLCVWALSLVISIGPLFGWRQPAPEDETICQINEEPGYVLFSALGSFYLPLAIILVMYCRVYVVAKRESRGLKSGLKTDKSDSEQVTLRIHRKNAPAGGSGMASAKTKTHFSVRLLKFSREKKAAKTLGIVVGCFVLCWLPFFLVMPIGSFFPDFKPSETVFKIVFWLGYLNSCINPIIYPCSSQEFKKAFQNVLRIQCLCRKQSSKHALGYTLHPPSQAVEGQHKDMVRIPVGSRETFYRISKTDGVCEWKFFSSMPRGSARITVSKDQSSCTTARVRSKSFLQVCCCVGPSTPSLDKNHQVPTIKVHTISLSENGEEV

[27] = biological target: Dual specificity protein kinase TTK (Homo sapiens) (UniProt P33981); conditions: Compound concentration 1000.0 nM
[28] = biological target: Receptor-interacting serine/threonine-protein kinase 2 (Homo sapiens) (UniProt O43353); conditions: Compound concentration 1000.0 nM
[29] = test system: Tyrosine-protein kinase ABL1 (Homo sapiens), P00519 [H396P]; conditions: Compound concentration 1000.0 nM
[30] = biological target: 1-phosphatidylinositol 3-phosphate 5-kinase (Homo sapiens) (UniProt Q9Y2I7); conditions: Compound concentration 1000.0 nM
[31] = organism: Rattus norvegicus; test: SKCa channel Eurofins-Cerep binding assay; parameters: ligand concentration 0.007 nM; conditions: filed as antagonist, Compound concentration 10.0 uM
[32] = biological target: Dual specificity mitogen-activated protein kinase kinase 1 (Homo sapiens) (UniProt Q02750); conditions: Compound concentration 1000.0 nM
Chain of Dual specificity mitogen-activated protein kinase kinase 1 (Homo sapiens) (Q02750 whole entry): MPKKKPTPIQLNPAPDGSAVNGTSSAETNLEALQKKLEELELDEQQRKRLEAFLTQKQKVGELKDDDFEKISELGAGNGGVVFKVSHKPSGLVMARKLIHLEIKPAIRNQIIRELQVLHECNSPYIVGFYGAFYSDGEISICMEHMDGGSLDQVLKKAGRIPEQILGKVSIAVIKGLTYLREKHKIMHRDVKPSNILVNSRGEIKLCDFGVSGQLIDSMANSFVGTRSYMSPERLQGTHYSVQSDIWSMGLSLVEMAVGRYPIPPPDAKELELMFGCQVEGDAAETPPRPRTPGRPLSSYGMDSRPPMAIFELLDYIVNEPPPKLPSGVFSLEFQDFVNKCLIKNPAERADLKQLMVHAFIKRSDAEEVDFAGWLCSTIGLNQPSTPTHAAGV

[33] = biological target: Serine/threonine-protein kinase 4 (Homo sapiens) (UniProt Q13043); conditions: Compound concentration 1000.0 nM
[34] = biological target: Casein kinase I isoform gamma-3 (Homo sapiens) (UniProt Q9Y6M4); conditions: Compound concentration 1000.0 nM
Chain of Casein kinase I isoform gamma-3 (Homo sapiens) (Q9Y6M4 whole entry, looked up, canonical isoform): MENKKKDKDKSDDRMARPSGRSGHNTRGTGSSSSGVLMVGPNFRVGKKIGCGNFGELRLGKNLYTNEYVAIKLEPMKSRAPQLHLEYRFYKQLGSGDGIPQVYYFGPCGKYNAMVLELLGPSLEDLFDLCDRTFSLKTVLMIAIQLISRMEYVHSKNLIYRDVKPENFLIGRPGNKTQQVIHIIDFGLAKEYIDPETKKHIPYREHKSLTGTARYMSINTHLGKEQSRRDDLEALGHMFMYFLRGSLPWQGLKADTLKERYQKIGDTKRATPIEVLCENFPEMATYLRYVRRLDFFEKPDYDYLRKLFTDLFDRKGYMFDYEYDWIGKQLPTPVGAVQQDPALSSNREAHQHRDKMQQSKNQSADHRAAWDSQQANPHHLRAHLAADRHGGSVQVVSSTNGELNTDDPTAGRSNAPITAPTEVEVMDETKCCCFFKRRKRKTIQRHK

Chain of Vascular endothelial growth factor receptor 1 (Homo sapiens) (P17948 whole entry): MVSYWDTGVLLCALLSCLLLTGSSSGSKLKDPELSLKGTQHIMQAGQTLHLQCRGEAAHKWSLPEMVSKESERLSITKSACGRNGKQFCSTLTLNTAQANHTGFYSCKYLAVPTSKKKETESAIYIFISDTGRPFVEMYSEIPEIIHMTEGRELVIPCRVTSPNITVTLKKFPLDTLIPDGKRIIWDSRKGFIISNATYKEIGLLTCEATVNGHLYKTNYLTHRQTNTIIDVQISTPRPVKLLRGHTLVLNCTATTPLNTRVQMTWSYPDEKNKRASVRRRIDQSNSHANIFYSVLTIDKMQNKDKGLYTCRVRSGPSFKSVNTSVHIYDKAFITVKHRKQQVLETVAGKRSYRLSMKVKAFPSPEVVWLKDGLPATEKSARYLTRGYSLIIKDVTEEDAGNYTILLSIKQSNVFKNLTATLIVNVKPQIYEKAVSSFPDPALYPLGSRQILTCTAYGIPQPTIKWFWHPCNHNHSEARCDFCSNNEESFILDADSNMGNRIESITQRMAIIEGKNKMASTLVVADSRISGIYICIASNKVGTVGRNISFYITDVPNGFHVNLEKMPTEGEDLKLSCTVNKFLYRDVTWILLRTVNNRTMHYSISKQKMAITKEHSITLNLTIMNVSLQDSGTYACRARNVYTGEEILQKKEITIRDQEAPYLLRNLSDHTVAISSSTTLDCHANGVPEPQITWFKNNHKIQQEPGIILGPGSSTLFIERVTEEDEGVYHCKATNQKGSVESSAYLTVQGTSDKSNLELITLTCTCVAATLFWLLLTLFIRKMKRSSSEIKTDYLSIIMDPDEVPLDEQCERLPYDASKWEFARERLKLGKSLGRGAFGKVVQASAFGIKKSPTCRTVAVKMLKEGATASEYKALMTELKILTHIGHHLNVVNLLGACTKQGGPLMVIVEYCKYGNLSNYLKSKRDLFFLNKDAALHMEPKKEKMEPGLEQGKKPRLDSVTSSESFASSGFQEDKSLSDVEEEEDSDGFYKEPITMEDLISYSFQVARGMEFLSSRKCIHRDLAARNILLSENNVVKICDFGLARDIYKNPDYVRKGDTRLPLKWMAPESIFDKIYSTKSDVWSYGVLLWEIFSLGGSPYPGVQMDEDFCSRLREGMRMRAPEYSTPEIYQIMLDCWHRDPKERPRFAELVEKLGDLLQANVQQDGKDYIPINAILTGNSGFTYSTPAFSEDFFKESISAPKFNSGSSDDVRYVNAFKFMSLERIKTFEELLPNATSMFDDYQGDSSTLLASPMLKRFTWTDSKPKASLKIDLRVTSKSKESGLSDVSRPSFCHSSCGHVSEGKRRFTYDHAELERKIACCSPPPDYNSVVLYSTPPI

Row | SMILES | residual activity [1] | residual activity [2] | residual activity [3] | residual activity [4] | residual activity [5] | residual activity [6] | % Inhibition of Control Specific Binding (Mean n=2) [7] | residual activity [8] | residual activity [9] | residual activity [10] | residual activity [11] | IC50 [12] | residual activity [13] | residual activity [14] | residual activity [15] | residual activity [16] | residual activity [17] | residual activity [18] | residual activity [19] | residual activity [20] | also measured
1 | CCCOc1ccc([C@@H]2[C@@H](C(=O)O)[C@H](c3ccc4c(c3)OCO4)CN2CC(=O)Nc2c(CC)cccc2CC)cc1 [A-1806262] | 90% | 88% | 94% | 100% | 91% | 83% | -3.1% | 96% | 82% | 81% | 87% | 1600 nM (not active) | 97% | 92% | 87% | 93% | 100% | 99% | 92% | 100% | % Inhibition of Control Specific Binding (Mean n=2) [21]: 15%; % Inhibition of Control Specific Binding (Mean n=2) [22]: 1.8%; residual activity [23]: 93%; residual activity [24]: 87%; residual activity [25]: 72%; % Inhibition of Control Specific Binding (Mean n=2) [26]: 3.7%; residual activity [27]: 100%; residual activity [28]: 84%; residual activity [29]: 89%; residual activity [30]: 91%; % Inhibition of Control Specific Binding (Mean n=2) [31]: -2%; residual activity [32]: 93%; residual activity [33]: 95%; residual activity [34]: 100%
2 | CCCOc1ccc([C@H]2[C@H](C(=O)O)[C@@H](c3ccc4c(c3)OCO4)CN2CC(=O)Nc2c(CC)cccc2CC)cc1 [A-192621] | 99% | 89% | 97% | 88% | 91% | 71% | 2.4% | 93% | 73% | 65% | 72% | 3600 nM (not active) | 87% | 100% | 100% | 87% | 100% | 86% | 98% | 100% | % Inhibition of Control Specific Binding (Mean n=2) [21]: 7.4%; % Inhibition of Control Specific Binding (Mean n=2) [22]: 2.6%; residual activity [23]: 97%; residual activity [24]: 86%; residual activity [25]: 71%; % Inhibition of Control Specific Binding (Mean n=2) [26]: 5%; residual activity [27]: 94%; residual activity [28]: 100%; residual activity [29]: 63%; residual activity [30]: 86%; % Inhibition of Control Specific Binding (Mean n=2) [31]: 0.5%; residual activity [32]: 66%; residual activity [33]: 99%; residual activity [34]: 100%

From ChEMBL document CHEMBL4507261, “Data for DCP probe A-192621” (2021)
